EC50 data for twelve compounds are collected here from patent US20240166652A1, “MODULATORS OF THE INTEGRATED STRESS PATHWAY” (Calico Life Sciences LLC, priority 2017, published 2024).

One may read the EC50 as the midpoint of the concentration-response curve.

Bounds are passed on as bounds.

The test system of the assay is ATF4 luciferase reporter in HEK293T cells. The assay is described as follows: ATF4-Luc assay (ATF4 luciferase reporter, tunicamycin-treated HEK293T cells). It is filed as cell-based, human. As to conditions: Homo sapiens, HEK-293T; HEK293T cells carrying the ATF4 luciferase reporter, 1 μg/mL tunicamycin, 7 hours. (A reporter such as luciferase makes a cellular process visible.)

Take `CC(=O)c1ccc(OCC(=O)NC23CCC(NC(=O)COc4ccc(Cl)c(F)c4)(CC2)[C@@H](O)C3)cc1` [Compound 524, 2-(4-acetylphenoxy)-N-{(3S)-4-[2-(4-chloro-3-fluorophenoxy)acetamido]-3-hydroxybicyclo[2.2.2]octan-1-yl}acetamide]: the EC50 was 10 to 50 nM.

As to `Cc1cc(OCC(=O)NC23CCC(NC(=O)COc4ccc(Cl)c(F)c4)(CC2)C[C@@H]3O)c2ccccc2n1` [Compound 520, 2-(4-chloro-3-fluorophenoxy)-N-[(3S)-3-hydroxy-4-{2-[(2-methylquinolin-4-yl)oxy]acetamido}bicyclo[2.2.2]octan-1-yl]acetamide], the EC50 fell in the range of 10 to 50 nM.

For the compound `Cc1cc(F)ncc1OCC(=O)NC12CC(NC(=O)COc3ccc(Cl)c(F)c3)(C1)C2` [Compound 247, 2-(4-chloro-3-fluorophenoxy)-N-(3-{2-[(6-fluoro-4-methylpyridin-3-yl)oxy]acetamido}bicyclo[1.1.1]pentan-1-yl)acetamide], the EC50 was 50 to 250 nM.

In the case of `O=C(COc1ccc(Cl)c(F)c1)NC12CCC(NC(=O)COc3ccc(Cl)c(F)c3)(CC1)C(F)C2` (stereo not drawn) [Compound 365, N,N′-(2-fluorobicyclo[2.2.2]octane-1,4-diyl)bis[2-(4-chloro-3-fluorophenoxy)acetamide]], the EC50 was below 10 nM.

With `N#Cc1ccc(COCC(=O)NC23CC(NC(=O)COc4ccc(Cl)c(F)c4)(C2)C3)cc1` [Compound 139, 2-(4-chloro-3-fluorophenoxy)-N-(3-{2-[(4-cyanophenyl)methoxy]acetamido}-bicyclo[1.1.1]pentan-1-yl)acetamide], the half-maximal effective concentration (EC50) fell in the range of 250 to 500 nM.

On to `CN(C)C1CC2(NC(=O)COc3ccc(Cl)c(F)c3)CCC1(NC(=O)COc1ccc(Cl)c(F)c1)CC2` (stereo not drawn) [Compound 300, N,N′-[2-(dimethylamino)bicyclo[2.2.2]octane-1,4-diyl]bis[2-(4-chloro-3-fluorophenoxy)acetamide]], for which the EC50 was 10 to 50 nM.

Regarding `O=C(COc1ccc(Cl)c(Cl)c1)NC12CCC(NC(=O)COc3ccc(Cl)c(F)c3)(CC1)C(=O)N2` [Compound 602, 2-(4-chloro-3-fluorophenoxy)-N-{1-[2-(3,4-dichlorophenoxy)acetamido]-3-oxo-2-azabicyclo[2.2.2]octan-4-yl}acetamide], the EC50 was below 10 nM.

With `O=C(COc1ccc(Cl)c(F)c1)NC12CCC(NC(CCOc3ccc(Cl)cc3)C(=O)O)(CC1)C[C@@H]2O` (stereo partly drawn) [Compound 706, 2-({(3S)-4-[2-(4-chloro-3-fluorophenoxy)acetamido]-3-hydroxybicyclo[2.2.2]octan-1-yl}amino)-4-(4-chlorophenoxy)butanoic acid], the EC50 was in the range of 250 to 500 nM.

In the case of `Cc1ccc(OCC(=O)NC23CCC(NC(=O)COc4ccc(C)c(C)c4)(CC2)[C@@H](O)C3)cc1C` [Compound 443, N,N′-[(2S)-2-hydroxybicyclo[2.2.2]octane-1,4-diyl]bis[2-(3,4-dimethylphenoxy)acetamide]], the EC50 was below 10 nM.

Regarding `O=C(COc1ccc(Cl)c(F)c1)NC12C=C(C(=O)O)C(NC(=O)COc3ccc(Cl)c(F)c3)(CC1)CC2` [Compound 717, 1,4-bis[2-(4-chloro-3-fluorophenoxy)acetamido]bicyclo[2.2.2]oct-2-ene-2-carboxylic Acid], the EC50 lay in the range of 50 to 250 nM.

As for `N#Cc1cc(OCC(=O)NC23CC(NC(=O)COc4ccc5c(c4)OC(F)(F)O5)(C2)C3)ccn1` [Compound 270, 2-[(2-cyanopyridin-4-yl)oxy]-N-(3-{2-[(2,2-difluoro-2H-1,3-benzodioxol-5-yl)oxy]acetamido}bicyclo[1.1.1]pentan-1-yl)acetamide], the EC50 was 250 to 500 nM.

As to `Cc1ccc(OCC(=O)NC23CCC(NC(=O)COc4ccc(OC(F)(F)F)c(F)c4)(CC2)[C@@H](O)C3)cc1F` [Compound 733, 2-(3-fluoro-4-methylphenoxy)-N-[(3S)-4-{2-[3-fluoro-4-(trifluoromethoxy)phenoxy]acetamido}-3-hydroxybicyclo[2.2.2]octan-1-yl]acetamide], the EC50 is below 10 nM.
